Experimental data from patent publication US9248202B2, “Two-photon probe for detecting copper(II) ion and quantitative estimation of copper(II) ion in human tissue using the same” (Korea University Research and Business Foundation, priority 2014, dated 2016).

Tests used:
[1] = Absorption and fluorescence spectra, quantum yield, energy transfer; type: physicochemical; conditions: for φ (fluorescence quantum yield): uncertainty ± 15%; for λmax^abs: one-photon absorption; for λmax^t1: one-photon emission
Protocol: Absorption spectra were recorded using the Hewlett-Packard 8453 diode array spectrophotometer and fluorescence spectra were measured using the Amico-Bowman series 2 luminescence spectrometer a 1 cm standard quartz cell. The fluorescence quantum yield was determined using coumarin 307 and rhodamine B as references according to the literature method (J. N. Demas, G. A. Crosby, J. Phys. Chem. 1971, 75, 991).
(hereinafter, ‘ACCu2’), a compound of [Chemical Formula 12] (hereinafter, ‘FL’) and a compound of [Chemical Formula 13] (hereinafter, ‘IR’) in 1,4-dioxane, DMF, ethanol, EtOH/HEPES (9:1) and HEPES buffer ([HEPES]=20 mM, pH 7.0). Excitation wavelength was 420 nm. The solubility of ACCu2 in HEPES buffer ([HEPES]=20 mM, pH 7.0) as determined by the fluorescence method described in the literature (Kim, H. M.; Choo, H. J.; Jung, S. Y.; Ko, Y. G.; Park, W. H.; Jeon, S. J.; Kim, C. H.; Joo, T. H.; Cho, B. R. Chem Bio Chem 2007, 8, 553) was 8.0 μM, which was sufficient to stain cells.
To assess the origin of the spectral changes, the energy transfer efficiency (ETE) was calculated using Equation (1). The ETE was 93.4%.
In Equation (1), AIR and AIR′ are the absorbances of the IR moiety and IR, respectively, and FIR and FIR′ are the emission intensities of the IR moiety and IR, respectively, upon excitation at 373 nm.
The antenna effect in the one-photon (OP) (or TP) mode was 3.0 (or 3.1). The antenna effect was calculated by dividing the area of emission from the FL moiety upon excitation of the IR moiety at 373 nm (or 750 nm in the TP mode) by that collected from the direct excitation of FL at 461 nm (or 880 nm in the […]).

[2] = Selectivity of ACCu2 for copper(II) ion against competing metal ions; conditions: ACCu2 3 μM; Na+, K+, Ca2+, Mg2+ 1 mM; transition metal ions 500 μM; then 200 μM Cu2+; EtOH/HEPES (9/1, pH 7.0)
Protocol: The black bars show the result obtained in the presence of alkali metal and alkaline earth metal ions Na^+, K^+, Ca^2+ and Mg^2+ (1 mM) and transition metal ions Mn^2+, Fe^2+, Co^2+, Ni^2+, Zn^2+, Pd^2+, Cd^2+ and […] in EtOH/HEPES (9/1 v/v, pH 7.0), and the white bars show the result obtained after further addition of 200 μM Cu^2+.

[3] = pH dependence of Ired/Iblue ratio; type: physicochemical; conditions: 3 μM ACCu2, 200 μM copper(II) ion, excitation 365 nm
From the text: The excitation wavelength was 365 nm. […] The increase in the Ired/Iblue ratio at pH<6 can be attributed to the protonation of the nitrogen atom in the pyridine moiety as shown in [Chemical Formula 19]. On the other hand, the increase in the Ired/Iblue ratio at pH>7.0 can be attributed to the decreased copper(II) ion concentration due to the formation of Cu(OH)2. This outcome is different from that reported for the existing one-photon probe.

HeLa cells = experiment: Two-photon microscopy of ACCu2-labeled HeLa cells, copper(II) ion estimation; type: cell-based, human; conditions: for free copper(II) ion concentration: from Ired/Iblue ratio and titration curve
From the text: The two curves were similar to the TPEF spectra of HeLa cells labeled with FL and IR. And, the OP-excited fluorescence (OPEF) spectra of FL and IR measured in EtOH/HEPES (9/1 v/v, pH=7.0) (see Table 1 and FIG. 1) confirmed that this solvent is a good model of the intracellular environment.
In order to investigate the utility of ACCu2 in living cells, TPM images of ACCu2-labeled HeLa cells and tissues were obtained using spectral confocal and multiphoton microscopes (Leica TCS SP2) with ×100 (NA=1.30 OIL) and ×40 (NA=0.75 DRY) objective lenses.
The TPM images were obtained with the DM IRE2 microscope (Leica) by exciting the probes with a mode-locked titanium-sapphire laser source (Coherent Chameleon, 90 MHz, 200 fs) set at a wavelength of 780 nm and an output power of 1305 mW. To obtain images at 400-650 nm, internal PMTs were used to collect signals in 8-bit unsigned 512×512 pixels at a scan rate of 400 Hz.
HeLa human cervical carcinoma cells were acquired from the ATCC (Manassas, Va., USA). The cells were cultured in DMEM (WelGene, Inc., Seoul, Korea) supplemented with heat-inactivated 10% FBS (WelGene), penicillin (100 units/mL) and streptomycin ([…]), All the cell lines were maintained in a humidified atmosphere of 5% CO2 and 95% air at 37° C. Two days before imaging, the cells were moved and plated onto glass-bottomed dishes (MatTek), For labeling, the growth medium was removed and replaced with FBS-free DMEM. The cells were incubated with 3 μM ACCu2 for 20 minutes at 37° C., washed 3 times with FBS-free DMEM and imaged.
Ratiometric images were constructed from the TPEF intensities collected in the two channels (FIG. 9(a)-(c)). The Ired/Iblue ratio for the ACCu2-labeled HeLa cells was measured as 9.9±0.8 (FIG. 9(d)). The ratio decreased to 6.5 upon addition of copper(II) ion (200 μM) and pyrrolidine dithiocarbamate (PDTC, 100 μM) due to accumulation of copper(II) ion inside the cells, and increased to 9.8 upon treatment with ethylenediaminetetraacetic acid (EDTA, 100 μM), a […] metal on chelator that effectively removes copper(II) ion.
Since Iblue remains constant, ACCu2 according to the present disclosure can measure the Ired/Iblue ratio more accurately than the existing probe which requires the measurements of the changes in both Ired and Iblue. The free copper(II) ion concentration was calculated as 0.0±0.7 μM (FIG. 9(a)), 15±2 μM (FIG. 9(b)) and 0.0±1.9 μM (FIG. 9(c)) from the Ired/Iblue ratio and the titration curve shown in FIG. 5(b).

[4] = one-photon, excitation 373 nm, EtOH/HEPES (9:1, pH 7.0)
[5] = ACCu2-labeled HeLa cells, 750 nm TP excitation, scanning lambda mode

φ (fluorescence quantum yield) ([1]; 1,4-Dioxane (0.164)): 0.75
red shift in the emission spectra with solvent polarity ([1]; 1,4-dioxane to H2O): 69 nm
φ (fluorescence quantum yield) ([1]; DMF (0.386)): 0.54
φ (fluorescence quantum yield) ([1]; EtOH (0.654)): 0.34
φ (fluorescence quantum yield) ([1]; EtOH/HEPES (9:1)): 0.22
energy transfer efficiency (ETE) ([1]; FRET from IR to FL moiety, excitation at 373 nm, Equation (1)): 93.4%
φ (fluorescence quantum yield) ([1]; HEPES buffer 20 mM, pH 7.0): 0.0028
antenna effect ([1]; TP mode, 750 nm vs direct excitation 880 nm): 3.1
antenna effect ([1]; one-photon (OP) mode, 373 nm vs direct excitation 461 nm): 3.0
λmax^abs ([1]; 1,4-Dioxane (0.164)): 380/437
λmax^abs ([1]; DMF (0.386)): 371/456
λmax^abs ([1]; EtOH (0.654)): 379/460
λmax^abs ([1]; EtOH/HEPES (9:1)): 379/465
λmax^abs ([1]; HEPES buffer 20 mM, pH 7.0): 380/453
λmax^t1 ([1]; 1,4-Dioxane (0.164)): 533 nm
λmax^t1 ([1]; DMF (0.386)): 577 nm
λmax^t1 ([1]; EtOH (0.654)): 578 nm
λmax^t1 ([1]; EtOH/HEPES (9:1)): 585 nm
λmax^t1 ([1]; HEPES buffer 20 mM, pH 7.0): 602 nm
decrease of area of blue emission (400-450 nm) from that of IR [1, 4]: 9.2 fold
increase of area of red emission (550-650 nm) from that of FL [1, 4]: 3.4 fold
decrease of blue emission ([1]; two-photon (TP) mode): 13 fold
increase of red emission ([1]; two-photon (TP) mode): 3.1 fold
pH at which Ired/Iblue ratio shows a minimum [3]: 6-7
TPEF emission maximum, first Gaussian function (solid curve) (HeLa cells; [5]): 470 nm
TPEF emission maximum, second Gaussian function (dotted curve) (HeLa cells; [5]): 582 nm
SMILES: COCCOCCOCCOc1ccc2c(ccc3cc(C(=O)N4CCN(C(=O)c5ccc(CNC(=O)c6cc7cc8ccc(N(C)C)cc8cc7oc6=O)nc5)CC4)c(=O)oc32)c1 [ACCu2]
selectivity for Cu2+ in the presence of competing metal ions [2]: uninterrupted in the presence of the alkali metal, alkaline earth metal or transition metal ions
Ired/Iblue ratio (HeLa cells; ACCu2-labeled HeLa cells, before addition of copper(II) ion): 9.9±0.8
free copper(II) ion concentration (HeLa cells; HeLa cells, FIG. 9(a)): 0.0 ± 0.7 µM
free copper(II) ion concentration (HeLa cells; HeLa cells, FIG. 9(b)): 15 ± 2 µM
free copper(II) ion concentration (HeLa cells; HeLa cells, FIG. 9(c)): 0.0 ± 1.9 µM
Ired/Iblue ratio (HeLa cells; HeLa cells, after copper(II) ion (200 μM) and PDTC (100 μM)): 6.5
Ired/Iblue ratio (HeLa cells; HeLa cells, after further treatment with EDTA (100 μM)): 9.8
